Assay results: PubChem BioAssay AID2060503 (Molecular Pharmacology Branch, DTP, NCI, 2025)
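Further: spheroids exposed to agents for 7 days before readout; percent viability relative to DMSO vehicle control taken as 100%.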

What follows are molecules tested on 817829-284-R-J1-PDC complex spheroids, viability (assay: Anticancer human tumor 817829-284-R-J1-PDC patient-derived colon adenocarcinoma cell line growth inhibition [GQUAD]). Conditions: second compound 0.1 µM; first compound 1 µM; hits give low values.
How it was run: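 Viability of tumor cells grown as complex spheroids with endothelial and stromal cells, exposed to drug combinations. Top concentration at or near clinical Cmax (else 10 microM), diluted in half-log increments.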
C=CCn1c(=O)c2cnc(Nc3ccc(N4CCN(C)CC4)cc3)nc2n1-c1cccc(C(C)(C)O)n1 + Cc1cnc(CNC(=O)c2c(=O)c3ccc(N4CCCN(C)CC4)nc3n3c2sc2ccccc23)cn1 showed a viability, T/C of 10.5%. With CC(C)(O)C1CCC(Nc2ccc3ncc(-c4cccc(C(F)(F)F)c4)n3n2)CC1 (configuration not stated) + Cc1cnc(CNC(=O)c2c(=O)c3ccc(N4CCCN(C)CC4)nc3n3c2sc2ccccc23)cn1 the viability, T/C was 20.4%. Molecule CCCS(=O)(=O)Nc1ccc(F)c(C(=O)c2c[nH]c3ncc(-c4ccc(Cl)cc4)cc23)c1F + Cc1cnc(CNC(=O)c2c(=O)c3ccc(N4CCCN(C)CC4)nc3n3c2sc2ccccc23)cn1 has a viability, T/C of 14.8%. With O=C(NO)c1cnc(N2CCN(S(=O)(=O)c3ccc4ccccc4c3)CC2)nc1 + Cc1cnc(CNC(=O)c2c(=O)c3ccc(N4CCCN(C)CC4)nc3n3c2sc2ccccc23)cn1 the viability, T/C was 0.1%.

Same assay, conditions: second compound 0.1 µM; first compound 3.16 µM; hits give low values
C#Cc1c(F)ccc2cc(O)cc(-c3ncc4c(N5CC6CCC(C5)N6)nc(OCC56CCCN5CC(F)C6)nc4c3F)c12 (configuration not stated) + Cc1cnc(CNC(=O)c2c(=O)c3ccc(N4CCCN(C)CC4)nc3n3c2sc2ccccc23)cn1 gave a viability, T/C of 33.9%. With C=CCn1c(=O)c2cnc(Nc3ccc(N4CCN(C)CC4)cc3)nc2n1-c1cccc(C(C)(C)O)n1 + Cc1cnc(CNC(=O)c2c(=O)c3ccc(N4CCCN(C)CC4)nc3n3c2sc2ccccc23)cn1 the viability, T/C was 7.47%. Work on CC(C)(O)C1CCC(Nc2ccc3ncc(-c4cccc(C(F)(F)F)c4)n3n2)CC1 (configuration not stated) + Cc1cnc(CNC(=O)c2c(=O)c3ccc(N4CCCN(C)CC4)nc3n3c2sc2ccccc23)cn1 yielded a viability, T/C of 7.21%. CCCS(=O)(=O)Nc1ccc(F)c(C(=O)c2c[nH]c3ncc(-c4ccc(Cl)cc4)cc23)c1F + Cc1cnc(CNC(=O)c2c(=O)c3ccc(N4CCCN(C)CC4)nc3n3c2sc2ccccc23)cn1 gave a viability, T/C of 12.5%. O=C(NO)c1cnc(N2CCN(S(=O)(=O)c3ccc4ccccc4c3)CC2)nc1 + Cc1cnc(CNC(=O)c2c(=O)c3ccc(N4CCCN(C)CC4)nc3n3c2sc2ccccc23)cn1 was tested, and the viability, T/C was 0.02%.

Same assay, conditions: second compound 0.1 µM; first compound 10 µM; hits give low values
C#Cc1c(F)ccc2cc(O)cc(-c3ncc4c(N5CC6CCC(C5)N6)nc(OCC56CCCN5CC(F)C6)nc4c3F)c12 (configuration not stated) + Cc1cnc(CNC(=O)c2c(=O)c3ccc(N4CCCN(C)CC4)nc3n3c2sc2ccccc23)cn1 was tested, and the viability, T/C was 35.9%. With C=CCn1c(=O)c2cnc(Nc3ccc(N4CCN(C)CC4)cc3)nc2n1-c1cccc(C(C)(C)O)n1 + Cc1cnc(CNC(=O)c2c(=O)c3ccc(N4CCCN(C)CC4)nc3n3c2sc2ccccc23)cn1 the viability, T/C was 6.17%. Molecule CC(C)(O)C1CCC(Nc2ccc3ncc(-c4cccc(C(F)(F)F)c4)n3n2)CC1 (configuration not stated) + Cc1cnc(CNC(=O)c2c(=O)c3ccc(N4CCCN(C)CC4)nc3n3c2sc2ccccc23)cn1 has a viability, T/C of 8.8%. CCCS(=O)(=O)Nc1ccc(F)c(C(=O)c2c[nH]c3ncc(-c4ccc(Cl)cc4)cc23)c1F + Cc1cnc(CNC(=O)c2c(=O)c3ccc(N4CCCN(C)CC4)nc3n3c2sc2ccccc23)cn1 gave a viability, T/C of 10.2%. O=C(NO)c1cnc(N2CCN(S(=O)(=O)c3ccc4ccccc4c3)CC2)nc1 + Cc1cnc(CNC(=O)c2c(=O)c3ccc(N4CCCN(C)CC4)nc3n3c2sc2ccccc23)cn1 was tested, and the viability, T/C was 0.06%.

Same assay, conditions: second compound 0.316 µM; first compound 0.000999 µM; hits give low values
With Cc1[nH]c2ccccc2c1CCNCc1ccc(/C=C/C(=O)NO)cc1 + Cc1cnc(CNC(=O)c2c(=O)c3ccc(N4CCCN(C)CC4)nc3n3c2sc2ccccc23)cn1 the viability, T/C was 21.5%.

Same assay, conditions: second compound 0.316 µM; first compound 0.00316 µM; hits give low values
Cc1[nH]c2ccccc2c1CCNCc1ccc(/C=C/C(=O)NO)cc1 + Cc1cnc(CNC(=O)c2c(=O)c3ccc(N4CCCN(C)CC4)nc3n3c2sc2ccccc23)cn1 gave a viability, T/C of 24.8%.

Same assay, conditions: second compound 0.316 µM; first compound 0.00999 µM; hits give low values
With Cc1[nH]c2ccccc2c1CCNCc1ccc(/C=C/C(=O)NO)cc1 + Cc1cnc(CNC(=O)c2c(=O)c3ccc(N4CCCN(C)CC4)nc3n3c2sc2ccccc23)cn1 the viability, T/C was 17.1%.

Same assay, conditions: second compound 0.316 µM; first compound 0.0316 µM; hits give low values
Molecule C#Cc1c(F)ccc2cc(O)cc(-c3ncc4c(N5CC6CCC(C5)N6)nc(OCC56CCCN5CC(F)C6)nc4c3F)c12 (configuration not stated) + Cc1cnc(CNC(=O)c2c(=O)c3ccc(N4CCCN(C)CC4)nc3n3c2sc2ccccc23)cn1 has a viability, T/C of 22.9%. Molecule C=CCn1c(=O)c2cnc(Nc3ccc(N4CCN(C)CC4)cc3)nc2n1-c1cccc(C(C)(C)O)n1 + Cc1cnc(CNC(=O)c2c(=O)c3ccc(N4CCCN(C)CC4)nc3n3c2sc2ccccc23)cn1 has a viability, T/C of 20.3%. CC(C)(O)C1CCC(Nc2ccc3ncc(-c4cccc(C(F)(F)F)c4)n3n2)CC1 (configuration not stated) + Cc1cnc(CNC(=O)c2c(=O)c3ccc(N4CCCN(C)CC4)nc3n3c2sc2ccccc23)cn1 was tested, and the viability, T/C was 22.4%. For CCCS(=O)(=O)Nc1ccc(F)c(C(=O)c2c[nH]c3ncc(-c4ccc(Cl)cc4)cc23)c1F + Cc1cnc(CNC(=O)c2c(=O)c3ccc(N4CCCN(C)CC4)nc3n3c2sc2ccccc23)cn1, the viability, T/C was 19.2%. Cc1[nH]c2ccccc2c1CCNCc1ccc(/C=C/C(=O)NO)cc1 + Cc1cnc(CNC(=O)c2c(=O)c3ccc(N4CCCN(C)CC4)nc3n3c2sc2ccccc23)cn1 showed a viability, T/C of 15.9%. Work on O=C(NO)c1cnc(N2CCN(S(=O)(=O)c3ccc4ccccc4c3)CC2)nc1 + Cc1cnc(CNC(=O)c2c(=O)c3ccc(N4CCCN(C)CC4)nc3n3c2sc2ccccc23)cn1 yielded a viability, T/C of 18.8%.

Same assay, conditions: second compound 0.316 µM; first compound 0.0999 µM; hits give low values
With Cc1[nH]c2ccccc2c1CCNCc1ccc(/C=C/C(=O)NO)cc1 + Cc1cnc(CNC(=O)c2c(=O)c3ccc(N4CCCN(C)CC4)nc3n3c2sc2ccccc23)cn1 the viability, T/C was 4.53%.

Same assay, conditions: second compound 0.316 µM; first compound 0.1 µM; hits give low values
In the case of C#Cc1c(F)ccc2cc(O)cc(-c3ncc4c(N5CC6CCC(C5)N6)nc(OCC56CCCN5CC(F)C6)nc4c3F)c12 (configuration not stated) + Cc1cnc(CNC(=O)c2c(=O)c3ccc(N4CCCN(C)CC4)nc3n3c2sc2ccccc23)cn1, the viability, T/C is reported as 28.6%. Molecule C=CCn1c(=O)c2cnc(Nc3ccc(N4CCN(C)CC4)cc3)nc2n1-c1cccc(C(C)(C)O)n1 + Cc1cnc(CNC(=O)c2c(=O)c3ccc(N4CCCN(C)CC4)nc3n3c2sc2ccccc23)cn1 has a viability, T/C of 18.2%. With CC(C)(O)C1CCC(Nc2ccc3ncc(-c4cccc(C(F)(F)F)c4)n3n2)CC1 (configuration not stated) + Cc1cnc(CNC(=O)c2c(=O)c3ccc(N4CCCN(C)CC4)nc3n3c2sc2ccccc23)cn1 the viability, T/C was 25.3%. In the case of CCCS(=O)(=O)Nc1ccc(F)c(C(=O)c2c[nH]c3ncc(-c4ccc(Cl)cc4)cc23)c1F + Cc1cnc(CNC(=O)c2c(=O)c3ccc(N4CCCN(C)CC4)nc3n3c2sc2ccccc23)cn1, the viability, T/C is reported as 20%. O=C(NO)c1cnc(N2CCN(S(=O)(=O)c3ccc4ccccc4c3)CC2)nc1 + Cc1cnc(CNC(=O)c2c(=O)c3ccc(N4CCCN(C)CC4)nc3n3c2sc2ccccc23)cn1 was tested, and the viability, T/C was 18.1%.

Same assay, conditions: second compound 0.316 µM; first compound 0.316 µM; hits give low values
C#Cc1c(F)ccc2cc(O)cc(-c3ncc4c(N5CC6CCC(C5)N6)nc(OCC56CCCN5CC(F)C6)nc4c3F)c12 (configuration not stated) + Cc1cnc(CNC(=O)c2c(=O)c3ccc(N4CCCN(C)CC4)nc3n3c2sc2ccccc23)cn1 was tested, and the viability, T/C was 24.8%. Molecule C=CCn1c(=O)c2cnc(Nc3ccc(N4CCN(C)CC4)cc3)nc2n1-c1cccc(C(C)(C)O)n1 + Cc1cnc(CNC(=O)c2c(=O)c3ccc(N4CCCN(C)CC4)nc3n3c2sc2ccccc23)cn1 has a viability, T/C of 15.1%. CC(C)(O)C1CCC(Nc2ccc3ncc(-c4cccc(C(F)(F)F)c4)n3n2)CC1 (configuration not stated) + Cc1cnc(CNC(=O)c2c(=O)c3ccc(N4CCCN(C)CC4)nc3n3c2sc2ccccc23)cn1 showed a viability, T/C of 25.3%.
